Ends that are not written are not given here.
How the values were obtained:
[1] = 278 K in C2D2Cl4; cited from earlier work
human red blood cells = experiment: cellular uptake by confocal microscopy; type: cell-based; conditions: 15 minutes incubation; 2 μM, 2 mM; cells not expressing αvβ3; listed as tetraRGD-cryptophane
Experimental: (§1) Cells were incubated with 2 mM tetraRGD-cryptophane for 15 minutes, washed, and imaged via confocal microscope. […] A-B) CAPAN-2, C-D) HFL-1, E-F) NCI-H1975, G-H) human red blood cells.
(§2) Cellular uptake was confirmed via confocal microscopy. Cells were incubated with 2 μM tetraRGD-cryptophane for 15 minutes, washed, and imaged via confocal microscope. […] A-B) CAPAN-2, C-D) HFL-1, E-F) NCI-H1975, G-H) human red blood cells.

CAPAN-2 = experiment: cellular uptake by confocal microscopy; type: cell-based; conditions: 15 minutes incubation; 2 μM, 2 mM; cells expressing αvβ3 integrin
Experimental: as §1, §2

HFL-1 = experiment: cellular uptake by confocal microscopy; type: cell-based; conditions: 15 minutes incubation; 2 μM, 2 mM; cells expressing αvβ3 integrin
Experimental: as §1, §2

NCI-H1975 = experiment: cellular uptake by confocal microscopy; type: cell-based; conditions: 15 minutes incubation; 2 μM, 2 mM; cells expressing αvβ3 integrin
Experimental: as §1, §2

[2] = test system: lung and pancreatic cancer cell lines; experiment: cell uptake of tetraRGD Xe biosensor, blocking by cyclic RGD peptide; type: cell-based
Text: Very efficient uptake by Xe biosensors containing tetraRGD was found in lung and pancreatic cancer cell lines, and no uptake by red blood cells, as shown in FIGS. 26 and 27.

cells = experiment: cytotoxicity, standard MTT assay; type: cell-based; conditions: 1-100 μM, 24 h soak, average of four trials
Experimental: Cytotoxicity was assessed using a standard MTT assay protocol.

**Q.** With `COc1cc2c3cc1OCCOc1cc4c(cc1OC)Cc1cc5c(OC)cc1Cc1cc(c(OC)cc1C4)OCCOc1cc(c(cc1OC)C3)Cc1cc(OC)c(cc1C2)OCCO5` [cryptophane-A] as the compound, how does the “KA of xenon binding” value [1] read?
**A.** The value was 3900 M⁻¹.

**Q.** With “Cy3-labelled ^129Xe biosensor: cryptophane biosensor containing the tetra-RGD peptide (RGDRGDRGDRGD, SEQ ID. No. 30), labeled with Cy3, targeting αvβ3 integrin (also: cryptophane cage conjugated, Cy3 labeled; listed as Homo sapiens)” as the compound, how does the “cellular uptake (fluorescence)” value (human red blood cells) read?
**A.** Its value is “showed little fluorescence”.

**Q.** What about the “cellular uptake (fluorescence)” value (CAPAN-2) of the same compound?
**A.** The value was “exhibited fluorescence”.

**Q.** And the “cellular uptake (fluorescence)” value (HFL-1)?
**A.** Its value is “exhibited fluorescence”.

**Q.** What about the “cellular uptake (fluorescence)” value (NCI-H1975) of the same compound?
**A.** The value was “exhibited fluorescence”.

**Q.** And the “cell uptake in presence of cyclic RGD peptide” value [2]?
**A.** Its value is “blocked”.

**Q.** What about the “cytotoxicity (cell viability relative to healthy controls)” value (cells) of the same compound?
**A.** Its value is “non-toxic”.

**Q.** What about the “cytotoxicity (cell viability relative to healthy controls)” value (cells; listed as Cy3 dye-labeled ^129Xe biosensor) of the same compound?
**A.** Its value is “not toxic”.
